{"source": "patent US6525001B1", "about": "“Substituted pyrimidine and pyridine herbicides” (Mid-American Commercialization Corporation, priority 1997, dated 2003)", "tested_on": "common groundsel (Senecio vulgaris)", "assay": "Test E pre-/postemergence/post directed", "format": "in vivo", "design": "key: 0 is no injury; 100 is complete control", "outline": "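Injury was scored visually on a 0 to 100 scale (100 = complete control) 13 to 21 days after treatment of greenhouse-grown plants. Test chemicals, in a surfactant-containing non-phytotoxic solvent, were sprayed onto soil within a day of planting, onto plants at the two to four leaf stage, or directed at the base of the plants.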", "data": [{"compound": "Cc1cnc(-c2ccc(C(F)(F)F)cc2)nc1Cc1cccc(OC(F)(F)F)c1", "note": "[Compound 15]", "values": [{"measurement": "Plant response rating, Com. groundsel", "setting": "POSTEMERGENCE, Rate 125 g/ha", "result": 0}]}, {"compound": "Cc1cnc(-n2cnc(C(F)(F)F)n2)nc1C(=O)c1cccc(C(F)(F)F)c1", "note": "[Compound 67]", "values": [{"measurement": "Plant response rating, Com. groundsel", "setting": "PREEMERGENCE, Rate 32 g/ha", "result": 0}]}, {"compound": "Cc1cnc(-n2ccc(C(F)(F)F)n2)nc1Cc1cccc(C(F)(F)F)c1", "note": "[Example 2, 5-methyl-4-[[3-(trifluoromethyl)phenyl]methyl]-2-[3-(trifluoromethyl)-1H-pyrazol-1-yl]pyrimidine]", "values": [{"measurement": "Plant response rating, Com. groundsel", "setting": "POSTEMERGENCE, Rate 32 g/ha", "result": 0}]}]}
